Experimental data as given in article PMC7764601 (Molecules, 2020).
Where two headings read alike, the source gives them in different places.

Legend:
[1] = target: T1, µ receptor of the rat cerebral cortex (Rattus norvegicus, UniProt P33535); experiment: Displacement of [3H-DHM] from µ receptor binding sites of rat cerebral cortex; conditions: read-out: Dihydromorphine [3H-DHM] Ki
T1 construct: from tissue; host or cells: rat cerebral cortex

mice [2] = conditions: cited from earlier work
mice [3] = test system: mice; design: method as in PMID 11234340, PMID 12484538, PMID 15652370; conditions: cited from earlier work; for % Inh. of locomotor activity: series 1; for ED50, influence on the locomotor activity: imides described previously (series 1)
mice [4] = test system: mice; design: method as in PMID 11234340, PMID 12484538, PMID 15652370; conditions: series 1, cited from earlier work
[5] = compounds obtained previously (series 1 and 2)

T1 sequence (P33535 whole entry): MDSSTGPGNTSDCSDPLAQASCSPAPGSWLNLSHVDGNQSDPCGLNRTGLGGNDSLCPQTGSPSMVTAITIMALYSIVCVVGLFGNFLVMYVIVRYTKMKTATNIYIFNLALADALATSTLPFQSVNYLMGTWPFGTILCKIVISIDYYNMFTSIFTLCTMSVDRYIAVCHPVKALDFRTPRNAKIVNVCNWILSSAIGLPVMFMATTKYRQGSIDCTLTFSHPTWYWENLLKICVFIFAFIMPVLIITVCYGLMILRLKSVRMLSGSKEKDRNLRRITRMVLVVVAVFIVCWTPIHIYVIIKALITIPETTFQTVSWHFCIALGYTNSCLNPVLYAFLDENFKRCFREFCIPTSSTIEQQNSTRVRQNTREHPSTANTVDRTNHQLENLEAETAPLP

Row | Structure (SMILES) | Ki [1] [µM] | ED50, writhing test (mice [2]; [5]) [mg/kg] | % Inh. of locomotor activity (mice [3]; dose 12.5 mg/kg) [%] | % Inh. of locomotor activity (mice [3]; dose 25 mg/kg) [%] | % Inh. of locomotor activity (mice [3]; dose 50 mg/kg) [%] | ED50, influence on the locomotor activity (mice [3]) [mg/kg] | Thiopental Anesthesia % Prolong. (mice [4]; dose 12.5 mg/kg) [%] | Thiopental Anesthesia % Prolong. (mice [4]; dose 25 mg/kg) [%] | Thiopental Anesthesia % Prolong. (mice [4]; dose 50 mg/kg) [%] | ED50, writhing test (mice [2]; imides described previously) [mg/kg]
1 | COc1ccccc1N1CCN(CCCN2C(=O)c3cc(C)nc(OC)c3C2=O)CC1 [Compound 1I] | 30.8 ± 47.8 | 0.67 | 53.91 | 72.77 | 76.69 | 11.8 | 123.3 | 140.3 | 207.2 | 
2 | COc1nc(C)cc2c1C(=O)N(CCCN1CCN(c3cccc(Cl)c3)CC1)C2=O [Compound 1J] | > 100 |  |  |  |  |  |  |  |  | 8.8
3 | COc1nc(C)cc2c1C(=O)N(CN1CCc3ccccc3C1)C2=O [Compound 1M] | 13.8 ± 12.2 | 12.7 |  | 47.25 | 59.21 | 29.5 |  | 146.6 | 195.1 | 
4 | CCOc1nc(C)cc2c1C(=O)N(CCCN1CCN(c3cccc(Cl)c3)CC1)C2=O [Compound 2J] | > 100 |  |  |  |  |  |  |  |  | 8.7
